Assay results published in ChEMBL document CHEMBL6121013, “Novel antimalarial 3-substituted quinolones isosteres with improved pharmacokinetic properties” (Eur J Med Chem, 2025).
Converted amounts (≈) assume the structure as drawn.

What was measured:
[1] = Metabolic stability in rat hepatocytes assessed as intrinsic clearance measured at 10^6 cells incubated for 5 to 120 mins by LC-MS/MS analysis; assay type: ADME, cell-based, Hepatocyte; conditions: time 5-120 min, read-out: CLH
[2] = Metabolic stability in human liver microsomes assessed as intrinsic clearance incubated for 0.5 to 30 mins by LC-MS/MS analysis; assay type: ADME, Microsome; conditions: time 0.5-30 min, read-out: CLH
[3] = Plasma protein binding in human assessed as free fraction incubated for 6 hrs by LC-MS/MS analysis; assay type: ADME, cell-free
[4] = Solubility of the compound at pH 7.4; assay type: physicochemical; conditions: buffer
[5] = Lipophilicity, logD of the compound at pH 7.4 by shake flask method; assay type: physicochemical; conditions: buffer
Plasmodium falciparum = test: Antimalarial activity against chloroquine-resistant Plasmodium falciparum W2 assessed as reduction in malarial growth incubated for 72 hrs by Spectrophotometric analysis; assay type: functional, organism-based; conditions: W2, 72 h
[6] = Clearance in mouse administered intravenously; assay type: ADME; conditions: in vivo, route iv
[7] = Half life in male CD1 mouse at 2 mg/kg, iv by LC-MS analysis; assay type: ADME, organism-based; conditions: in vivo
[8] = AUC in male CD1 mouse at 50 mg/kg, po by LC-MS analysis; assay type: ADME, organism-based; conditions: in vivo
[9] = Oral bioavailability in male CD1 mouse at 50 mg/kg by LC-MS analysis; assay type: ADME, organism-based; conditions: in vivo
[10] = Cmax in male CD1 mouse at 50 mg/kg, po by LC-MS analysis; assay type: ADME, organism-based; conditions: in vivo
[11] = Clearance in male CD1 mouse at 2 mg/kg, iv by LC-MS analysis; assay type: ADME, organism-based; conditions: in vivo

`Cc1[nH]c2ccccc2c(=O)c1-c1ccc(Oc2ccc(OC(F)(F)F)cc2)cc1` showed a hepatocyte CLint [1] of 6.17 µL/min/1e6 cells, a microsomal CLint [2] of less than 3 µL/min/mg and a fraction unbound at 6 h [3] of 0.0009. For the same compound, the solubility [4] was 3 µM (≈ 1.23 µg/mL), the logD [5] was 4.9 and the IC50 (Plasmodium falciparum) was 92 nM.
Work on `COc1cc2[nH]c(C)c(-c3ccc(Oc4ccc(OC(F)(F)F)cc4)cc3)c(=O)c2cc1Cl` yielded a clearance [6] of 0.7 mL/min/kg.
In the case of `Cc1[nH]c2c(c(=O)c1-c1ccc(Oc3ccc(OC(F)(F)F)cc3)cc1)CCCC2`, the hepatocyte CLint [1] is reported as 9.05 µL/min/1e6 cells, the microsomal CLint [2] is reported as less than 3 µL/min/mg and the fraction unbound at 6 h [3] is reported as 0.0013. For the same compound, the solubility [4] was 0.2 µM (≈ 0.0831 µg/mL), the logD [5] was 4.5 and the IC50 (Plasmodium falciparum) was 157 nM.
`Cc1[nH]c2c(c(=O)c1-c1ccc(Cl)cc1)CCCCC2` gave an IC50 (Plasmodium falciparum) of 3800 nM.
For `Cc1[nH]c2c(c(=O)c1-c1ccc(F)cc1)CCCCC2`, the IC50 (Plasmodium falciparum) was 4970 nM.
`Cc1[nH]c2c(c(=O)c1-c1ccc(F)cc1)CCOC2` showed an IC50 (Plasmodium falciparum) of 8410 nM.
With `Cc1[nH]c2c(c(=O)c1-c1ccc(Oc3ccc(OC(F)(F)F)cc3)cc1)CCCCC2` the IC50 (Plasmodium falciparum) was 1520 nM.
`Cc1[nH]c2c(c(=O)c1-c1ccc(Cl)cc1)CC(F)(F)CC2` gave a half-life [7] of 6.39 h, a hepatocyte CLint [1] of less than 1 µL/min/1e6 cells and an AUC [8] of 405 µg·h/mL. It also gave a microsomal CLint [2] of less than 3 µL/min/mg, a fraction unbound at 6 h [3] of 0.12 and a bioavailability [9] of 23.4%. It also gave a Cmax [10] of 28900 ng/mL, a solubility [4] of 20 µM (≈ 6.19 µg/mL) and a logD [5] of 2.7. It also gave a clearance [11] of 0.47 mL/min/kg and an IC50 (Plasmodium falciparum) of 235 nM.
`Cc1[nH]c2c(c(=O)c1-c1ccc(-c3ccc(OC(F)(F)F)cc3)nc1)COCC2` gave an IC50 (Plasmodium falciparum) greater than 10000 nM.
For `Cc1[nH]c2c(c(=O)c1-c1ccc(F)cc1)CCCC2`, the IC50 (Plasmodium falciparum) was 4800 nM.
Compound `Cc1[nH]c2c(c(=O)c1-c1ccc(-c3ccc(OC(F)(F)F)cc3)nc1)CCCC2` has an IC50 (Plasmodium falciparum) of 1150 nM.
Work on `Cc1[nH]c2c(c(=O)c1-c1ccc(Cl)cc1)CCCC2` yielded an IC50 (Plasmodium falciparum) of 956 nM.
`Cc1[nH]c2c(c(=O)c1-c1ccc(Cl)cc1)COCC2` showed an IC50 (Plasmodium falciparum) greater than 10000 nM.
`Cc1[nH]c2c(c(=O)c1-c1ccc(F)cc1)COCC2` gave an IC50 (Plasmodium falciparum) greater than 10000 nM.
Compound `Cc1[nH]c2c(c(=O)c1-c1ccc(Oc3ccc(OC(F)(F)F)cc3)cc1)CC(F)(F)CC2` has a hepatocyte CLint [1] of less than 1 µL/min/1e6 cells, a microsomal CLint [2] of less than 3 µL/min/mg and a fraction unbound at 6 h [3] of 0.0029. It also gave a solubility [4] of 2 µM (≈ 0.903 µg/mL), a logD [5] of 3.9 and an IC50 (Plasmodium falciparum) of 285 nM.
`Cc1[nH]c2c(c(=O)c1-c1ccc(Oc3ccc(OC(F)(F)F)cc3)cc1)COCC2` showed a hepatocyte CLint [1] of 2.63 µL/min/1e6 cells, a microsomal CLint [2] of less than 3 µL/min/mg and a fraction unbound at 6 h [3] of 0.0065. It also gave a solubility [4] of 140 µM (≈ 58.4 µg/mL), a logD [5] of 3.8 and an IC50 (Plasmodium falciparum) of 528 nM.
For `Cc1[nH]c2c(c(=O)c1-c1ccc(Oc3ccc(OC(F)(F)F)cc3)cc1)CCOC2`, the IC50 (Plasmodium falciparum) was 446 nM.
For `Cc1[nH]c2c(c(=O)c1-c1ccc(F)cc1)CC(F)(F)CC2`, the hepatocyte CLint [1] was less than 1 µL/min/1e6 cells, the microsomal CLint [2] was less than 3 µL/min/mg and the fraction unbound at 6 h [3] was 0.3. It also gave a solubility [4] of 68 µM (≈ 19.9 µg/mL), a logD [5] of 1.7 and an IC50 (Plasmodium falciparum) of 597 nM.
`Cc1[nH]c2c(c(=O)c1-c1ccc(OC(F)(F)F)cc1)CCCC2` showed a hepatocyte CLint [1] of 1.14 µL/min/1e6 cells, a microsomal CLint [2] of 25.6 µL/min/mg and a fraction unbound at 6 h [3] of 0.15. For the same compound, the solubility [4] was 14 µM (≈ 4.53 µg/mL), the logD [5] was 3.3 and the IC50 (Plasmodium falciparum) was 354 nM.
